Results reported in ChEMBL document CHEMBL6127091, “Design, synthesis, and evaluation of chalcone derivatives as xanthine oxidase inhibitors” (Eur J Med Chem, 2024).
Calls of active or inactive are those of the source. The rule behind the calls is not given here.

Tests used:
[1] = target: Xanthine dehydrogenase/oxidase (Bos taurus, UniProt P80457); test: Inhibition of bovine milk xanthine oxidase using xanthine as substrate preincubated for 30 mins followed by substrate addition by absorbance based analysis
Xanthine dehydrogenase/oxidase (Bos taurus, UniProt P80457), sequence (P80457 whole entry): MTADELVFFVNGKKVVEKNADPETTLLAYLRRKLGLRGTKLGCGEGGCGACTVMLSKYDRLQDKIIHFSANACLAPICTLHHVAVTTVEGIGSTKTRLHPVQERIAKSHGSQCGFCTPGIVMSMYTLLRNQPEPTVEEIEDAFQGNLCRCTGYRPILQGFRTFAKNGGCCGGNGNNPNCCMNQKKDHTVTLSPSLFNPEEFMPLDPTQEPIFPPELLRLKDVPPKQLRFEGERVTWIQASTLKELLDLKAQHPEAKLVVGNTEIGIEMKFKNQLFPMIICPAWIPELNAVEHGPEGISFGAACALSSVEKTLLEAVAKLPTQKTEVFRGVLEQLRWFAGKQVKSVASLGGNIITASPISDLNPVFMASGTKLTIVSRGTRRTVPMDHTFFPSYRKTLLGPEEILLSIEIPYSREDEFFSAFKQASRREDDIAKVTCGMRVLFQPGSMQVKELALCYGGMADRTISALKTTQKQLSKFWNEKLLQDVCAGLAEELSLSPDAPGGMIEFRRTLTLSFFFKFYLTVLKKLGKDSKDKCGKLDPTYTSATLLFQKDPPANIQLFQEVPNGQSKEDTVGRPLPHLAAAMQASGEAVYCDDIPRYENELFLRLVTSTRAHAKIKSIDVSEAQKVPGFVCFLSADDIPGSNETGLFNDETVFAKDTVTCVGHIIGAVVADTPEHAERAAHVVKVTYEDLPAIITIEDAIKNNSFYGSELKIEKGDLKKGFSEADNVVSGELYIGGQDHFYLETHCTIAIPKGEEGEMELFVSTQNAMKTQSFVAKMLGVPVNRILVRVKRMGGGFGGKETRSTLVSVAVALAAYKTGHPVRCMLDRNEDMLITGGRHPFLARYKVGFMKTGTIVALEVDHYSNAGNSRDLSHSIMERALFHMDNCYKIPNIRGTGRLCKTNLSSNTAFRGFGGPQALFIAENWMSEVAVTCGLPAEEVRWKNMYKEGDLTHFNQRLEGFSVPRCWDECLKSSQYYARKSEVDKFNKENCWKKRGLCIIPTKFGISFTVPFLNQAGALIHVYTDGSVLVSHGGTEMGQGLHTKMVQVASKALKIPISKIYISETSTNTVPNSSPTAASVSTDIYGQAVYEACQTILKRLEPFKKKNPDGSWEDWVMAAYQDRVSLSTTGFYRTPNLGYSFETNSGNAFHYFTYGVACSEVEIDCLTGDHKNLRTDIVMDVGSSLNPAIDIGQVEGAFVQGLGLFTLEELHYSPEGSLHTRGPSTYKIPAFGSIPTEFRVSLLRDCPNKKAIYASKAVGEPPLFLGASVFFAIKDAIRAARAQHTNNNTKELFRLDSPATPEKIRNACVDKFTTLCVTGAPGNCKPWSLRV

[2] = target: T1, Xanthine dehydrogenase/oxidase (Homo sapiens, UniProt P47989); test: Inhibition of xanthine oxidase (unknown origin) using xanthine as substrate preincubated for 20 mins followed by substrate addition measured for 5 mins by absorbance based analysis
T1 sequence (P47989 whole entry): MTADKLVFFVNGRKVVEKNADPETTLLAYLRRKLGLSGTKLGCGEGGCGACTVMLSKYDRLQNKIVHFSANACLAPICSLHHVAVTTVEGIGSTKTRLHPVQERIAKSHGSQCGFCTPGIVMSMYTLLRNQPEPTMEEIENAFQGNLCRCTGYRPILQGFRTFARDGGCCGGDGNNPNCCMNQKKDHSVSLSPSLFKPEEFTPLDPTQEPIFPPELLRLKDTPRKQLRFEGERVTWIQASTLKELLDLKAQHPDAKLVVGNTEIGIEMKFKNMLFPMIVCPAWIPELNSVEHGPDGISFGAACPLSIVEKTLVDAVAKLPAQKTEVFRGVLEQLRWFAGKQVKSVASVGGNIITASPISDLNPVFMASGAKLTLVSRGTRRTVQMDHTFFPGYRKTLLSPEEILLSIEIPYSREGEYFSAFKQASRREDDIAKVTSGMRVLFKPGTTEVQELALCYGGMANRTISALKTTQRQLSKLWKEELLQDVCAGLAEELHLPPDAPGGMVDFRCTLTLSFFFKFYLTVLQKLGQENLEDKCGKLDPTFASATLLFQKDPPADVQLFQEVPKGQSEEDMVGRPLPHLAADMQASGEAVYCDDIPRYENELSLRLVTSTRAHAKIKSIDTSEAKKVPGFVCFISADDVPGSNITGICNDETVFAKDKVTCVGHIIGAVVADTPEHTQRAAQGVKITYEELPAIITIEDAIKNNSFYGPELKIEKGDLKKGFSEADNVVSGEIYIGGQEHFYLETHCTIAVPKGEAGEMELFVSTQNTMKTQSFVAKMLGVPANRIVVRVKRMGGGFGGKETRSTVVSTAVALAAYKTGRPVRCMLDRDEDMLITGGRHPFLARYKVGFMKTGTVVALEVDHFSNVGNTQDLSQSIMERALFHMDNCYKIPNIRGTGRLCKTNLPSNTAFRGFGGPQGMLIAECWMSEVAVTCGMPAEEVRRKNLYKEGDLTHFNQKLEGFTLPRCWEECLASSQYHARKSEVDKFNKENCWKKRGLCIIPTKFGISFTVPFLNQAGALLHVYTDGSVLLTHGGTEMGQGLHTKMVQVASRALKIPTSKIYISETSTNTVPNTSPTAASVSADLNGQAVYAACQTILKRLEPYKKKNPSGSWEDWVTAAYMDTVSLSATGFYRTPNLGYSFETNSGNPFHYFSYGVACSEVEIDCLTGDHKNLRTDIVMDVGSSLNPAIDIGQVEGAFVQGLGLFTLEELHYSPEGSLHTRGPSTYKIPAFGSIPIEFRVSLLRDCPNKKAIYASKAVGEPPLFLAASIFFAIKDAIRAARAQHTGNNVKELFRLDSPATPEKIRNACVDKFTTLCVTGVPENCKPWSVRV

[3] = target: T1, Xanthine dehydrogenase/oxidase; test: Inhibition of xanthine oxidase (unknown origin)
[4] = Effect on serum AST/ALT ratio in PO-induced hyperuricemia Sprague-Dawley rat model at 10 mg/kg, po measure upto 8 hrs; assay type: toxicity, organism-based; settings: in vivo
Rattus norvegicus [5] = test: Anti-hyperuricemia effect in PO-induced hyperuricemia Sprague-Dawley rat model assessed as decrease in serum uric acid level at 10 mg/kg, po measured after 2 hrs; assay type: functional, organism-based
[6] = Effect on serum creatinine level in PO-induced hyperuricemia Sprague-Dawley rat model at 10 mg/kg, po measure upto 8 hrs; assay type: toxicity, organism-based; settings: in vivo
AML12 = test: Cytotoxicity in mouse AML12 cells at 1 to 20 uM incubated for 24 hrs by MTT assay; assay type: toxicity, cell-based; settings: aml12, 24 h, dose 1-20 µM
[7] = target: T1, Xanthine dehydrogenase/oxidase; test: Reversible inhibition of xanthine oxidase (unknown origin) using xanthine as substrate by absorbance based analysis
[8] = target: T1, Xanthine dehydrogenase/oxidase; test: Mixed-type inhibition of xanthine oxidase (unknown origin) using xanthine as substrate by absorbance based analysis
[9] = Cytotoxicity in mouse AML12 cells assessed as cell viability at 20 uM incubated for 24 hrs by MTT assay relative to control; assay type: toxicity, cell-based; settings: read-out: Activity
[10] = Cytotoxicity in mouse AML12 cells assessed as cell viability at 1 to 10 uM incubated for 24 hrs by MTT assay relative to control; assay type: toxicity, cell-based; settings: dose 1-10 µM, read-out: Activity
[11] = Effect on BUN level in PO-induced hyperuricemia Sprague-Dawley rat model at 10 to 40 mg/kg, po measure upto 8 hrs; assay type: toxicity, organism-based; settings: in vivo, dose 10-40 mg/kg
[12] = Effect on serum creatinine level in PO-induced hyperuricemia Sprague-Dawley rat model at 10 to 40 mg/kg, po measure upto 8 hrs; assay type: toxicity, organism-based; settings: in vivo, dose 10-40 mg/kg
Rattus norvegicus [13] = test: Anti-hyperuricemia effect in PO-induced hyperuricemia Sprague-Dawley rat model assessed as decrease in serum uric acid level at 10 mg/kg, po measured for 1 to 6 hrs; assay type: functional, organism-based; settings: time 1-6 hrs
Rattus norvegicus [14] = test: Anti-hyperuricemia effect in PO-induced hyperuricemia Sprague-Dawley rat model assessed as decrease in serum uric acid level at 10 to 40 mg/kg, po measured after 2 hrs; assay type: functional, organism-based; settings: dose 10-40 mg/kg
[15] = Effect on serum AST/ALT ratio in PO-induced hyperuricemia Sprague-Dawley rat model at 10 to 40 mg/kg, po measure upto 8 hrs; assay type: toxicity, organism-based; settings: in vivo, dose 10-40 mg/kg

| Structure (SMILES) | IC50 [1] [nM] | other results |
| --- | --- | --- |
| O=C(O)c1ccc(O)c(/C=C/C(=O)c2ccc3c(c2)CCC3)c1 | 559 | – |
| CS(=O)(=O)c1ccc(C(=O)/C=C/c2cc(C(=O)O)ccc2O)cc1 | 109 | – |
| COc1ccc(C(=O)/C=C/c2ccc(O)cc2)cc1 | – | IC50 [2]: 4500 nM |
| O=C(O)c1ccc(O)c(/C=C/C(=O)c2ccc3ccccc3c2)c1 | 213 | – |
| CSc1ccc(C(=O)/C=C/c2cc(C(=O)O)ccc2O)cc1 | 193 | – |
| Cc1ccc(C(=O)/C=C/c2cc(C(=O)O)ccc2O)cc1 | 176 | – |
| C#Cc1ccc(C(=O)/C=C/c2cc(C(=O)O)ccc2O)cc1 | 127 | – |
| O=C(O)c1ccc(/C=C/C(=O)c2ccc(O)cc2)cc1 | – | IC50 [3]: 300 nM |
| O=C(O)c1ccc(O)c(/C=C/C(=O)c2ccc3ncccc3c2)c1 | 196 | – |
| O=C(O)c1ccc(O)c(/C=C/C(=O)c2cc[nH]c2)c1 | 301 | – |
| Oc1ncnc2[nH]ncc12 [ALLOPURINOL] | – | Activity [4]: Non-Toxic; Activity (Rattus norvegicus [5]): Active; Activity [6]: Toxic |
| O=C(O)c1ccc(O)c(/C=C/C(=O)c2cccnc2)c1 | 297 | – |
| CCCOc1ccc(C(=O)/C=C/c2cc(C(=O)O)ccc2O)cc1 | 542 | – |
| O=C(O)c1ccc(O)c(/C=C/C(=O)c2cccc3ccccc23)c1 | 222 | – |
| CCOc1ccc(C(=O)/C=C/c2cc(C(=O)O)ccc2O)cc1 | 484 | – |
| CC(C)(C)c1ccc(C(=O)/C=C/c2cc(C(=O)O)ccc2O)cc1 | 555 | – |
| C[S+]([O-])c1ccc(C(=O)/C=C/c2cc(C(=O)O)ccc2O)cc1 (configuration not stated) | 311 | – |
| O=C(O)c1ccc(O)c(/C=C/C(=O)c2ccc3c(c2)CCO3)c1 | 155 | – |
| O=C(O)c1ccc(O)c(/C=C/C(=O)c2ccc3c(c2)OCCO3)c1 | 185 | – |
| CCCc1ccc(C(=O)/C=C/c2cc(C(=O)O)ccc2O)cc1 | 211 | – |

| Structure (SMILES) | IC50 [1] [nM] | other results |
| --- | --- | --- |
| O=C(/C=C/c1ccc(O)cc1)c1ccc(O)c(O)c1 | – | IC50 [2]: 5600 nM |
| O=C(O)c1ccc(O)c(/C=C/C(=O)c2nccs2)c1 | 226 | – |
| O=C(O)c1ccc(O)c(/C=C/C(=O)c2ccc3[nH]ccc3c2)c1 | 139 | – |
| CC(=O)c1ccc(C(=O)/C=C/c2cc(C(=O)O)ccc2O)cc1 | 248 | – |
| C=CCOc1ccc(C(=O)/C=C/c2cc(C(=O)O)ccc2O)cc1 | 404 | – |
| O=C(O)c1ccc(O)c(/C=C/C(=O)c2ccc3c(c2)CCN3)c1 | 64 | Activity (AML12): Non-Toxic; inhibition (INH) [7]: Active; inhibition (INH) [8]: Active |
| CCc1ccc(C(=O)/C=C/c2cc(C(=O)O)ccc2O)cc1 | 84 | viability at 24 h, 20 µM [9]: 82.1%; viability at 24 h, up to 10 µM [10]: > 90%; inhibition (INH) [7]: Active; inhibition (INH) [8]: Active |
| COc1ccc(C(=O)/C=C/c2cc(C(=O)O)ccc2O)cc1 | 266 | – |
| O=C(O)c1ccc(O)c(/C=C/C(=O)c2ccsc2)c1 | 215 | – |
| O=C(O)c1ccc(O)c(/C=C/C(=O)c2ccccn2)c1 | 307 | – |
| CNc1ccc(C(=O)/C=C/c2cc(C(=O)O)ccc2O)cc1 | 102 | Activity (AML12): Non-Toxic; Activity [11]: Non-Toxic; inhibition (INH) [7]: Active; Activity [12]: Non-Toxic; inhibition (INH) [8]: Active; Activity (Rattus norvegicus [13]): Active; Activity (Rattus norvegicus [14]): Active; Activity [15]: Non-Toxic |
| C#CCOc1ccc(C(=O)/C=C/c2cc(C(=O)O)ccc2O)cc1 | 274 | – |
| O=C(O)c1ccc(O)c(/C=C/C(=O)c2ccc3c(c2)OCO3)c1 | 178 | – |
| CC1(C)CCSc2ccc(C(=O)/C=C/c3cc(C(=O)O)ccc3O)cc21 | 368 | – |
| CN(C)c1ccc(C(=O)/C=C/c2cc(C(=O)O)ccc2O)cc1 | 117 | – |
| CCCCOc1ccc(C(=O)/C=C/c2cc(C(=O)O)ccc2O)cc1 | 294 | – |
| O=C(O)c1ccc(O)c(/C=C/C(=O)c2ccccc2)c1 | 206 | – |
| COc1ccc(C(=O)/C=C/c2ccc(C(=O)O)cc2)cc1 | – | IC50 [3]: 100 nM |
| O=C(O)c1ccc(O)c(/C=C/C(=O)c2ccncc2)c1 | 309 | – |
| CC(C)COc1ccc(C(=O)/C=C/c2cc(C(=O)O)ccc2O)cc1 | 306 | – |
